Experimental data: the supplement of paper PMC10307832

How the values were obtained:
Test in all cases: relative viability (nuclei count vs DMSO), 5 days (fraction); higher = more cells survive
NCI-H2085 = system: NCI-H2085
In short: (§1)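 Relative viability equals treated-well nuclei counts divided by vehicle-well nuclei counts. Counts came from 4× images of lung cancer cell lines grown in 1536-well plates for 5 days after pin-tool dosing on the day after seeding. Dosing used one drug alone or a fixed anchor-drug dose plus five library-drug doses (not always all listed) in √10 steps, and values are medians of duplicate plates.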

SK-MES-1 = system: SK-MES-1
In short: as §1

LXF-289 = system: LXF-289
In short: as §1

NCI-H661 = system: NCI-H661
In short: as §1

LC-2-ad = system: LC-2-ad
In short: as §1

EMC-BAC-2 = system: EMC-BAC-2
In short: as §1

H3255 = system: H3255
In short: as §1

COR-L 105 = system: COR-L 105
In short: as §1

CAL-12T = system: CAL-12T
In short: as §1

NCI-H2347 = system: NCI-H2347
In short: as §1

PC-3 [JPC-3] = system: PC-3 [JPC-3]
In short: as §1

EKVX = system: EKVX
In short: as §1

NCI-H1437 = system: NCI-H1437
In short: as §1

NCI-H1651 = system: NCI-H1651
In short: as §1

LK-2 = system: LK-2
In short: as §1

NCI-H2228 = system: NCI-H2228
In short: as §1

NCI-H1944 = system: NCI-H1944
In short: as §1

SK-LU-1 = system: SK-LU-1
In short: as §1

NCI-H1755 = system: NCI-H1755
In short: as §1

NCI-H1915 = system: NCI-H1915
In short: as §1

NCI-H2087 = system: NCI-H2087
In short: as §1

O=C(O)CCCCC(CCSCc1ccccc1)SCc1ccccc1 (centres undefined) [CPI-613] + C[C@@H](Oc1cc(-c2cnn(C3CCNCC3)c2)cnc1N)c1c(Cl)ccc(F)c1Cl [Crizotinib] (partner 1 µM)
relative viability (NCI-H2085; first compound 5 µM): 0.786
relative viability (NCI-H2085; first compound 15.81 µM): 0.886
relative viability (NCI-H2085; first compound 50 µM): 0.839
relative viability (NCI-H2085; first compound 158.11 µM): 0.415
relative viability (NCI-H2085; first compound 500 µM): 0.231
relative viability (SK-MES-1; first compound 5 µM): 0.918
relative viability (SK-MES-1; first compound 15.81 µM): 0.961
relative viability (SK-MES-1; first compound 50 µM): 0.936
relative viability (SK-MES-1; first compound 158.11 µM): 0.926
relative viability (SK-MES-1; first compound 500 µM): 0.734
relative viability (LXF-289; first compound 5 µM): 0.776
relative viability (LXF-289; first compound 15.81 µM): 0.764
relative viability (LXF-289; first compound 50 µM): 0.73
relative viability (LXF-289; first compound 158.11 µM): 0.295
relative viability (LXF-289; first compound 500 µM): 0.0479
relative viability (NCI-H661; first compound 15.81 µM): 1.03
relative viability (NCI-H661; first compound 50 µM): 0.997
relative viability (NCI-H661; first compound 158.11 µM): 1.15
relative viability (NCI-H661; first compound 500 µM): 0.817
relative viability (LC-2-ad; first compound 5 µM): 0.444
relative viability (LC-2-ad; first compound 15.81 µM): 0.432
relative viability (LC-2-ad; first compound 50 µM): 0.417
relative viability (LC-2-ad; first compound 158.11 µM): 0.529
relative viability (LC-2-ad; first compound 500 µM): 0.51
relative viability (EMC-BAC-2; first compound 5 µM): 0.753
relative viability (EMC-BAC-2; first compound 15.81 µM): 0.708
relative viability (EMC-BAC-2; first compound 50 µM): 0.83
relative viability (EMC-BAC-2; first compound 158.11 µM): 0.494
relative viability (EMC-BAC-2; first compound 500 µM): 0.267
relative viability (H3255; first compound 5 µM): 0.773
relative viability (H3255; first compound 15.81 µM): 0.894
relative viability (H3255; first compound 50 µM): 0.914
relative viability (H3255; first compound 158.11 µM): 0.831
relative viability (H3255; first compound 500 µM): 0.742
relative viability (COR-L 105; first compound 5 µM): 0.727
relative viability (COR-L 105; first compound 15.81 µM): 0.772
relative viability (COR-L 105; first compound 50 µM): 0.753
relative viability (COR-L 105; first compound 158.11 µM): 0.242
relative viability (COR-L 105; first compound 500 µM): 0.169
relative viability (CAL-12T; first compound 5 µM): 0.596
relative viability (CAL-12T; first compound 15.81 µM): 0.504
relative viability (CAL-12T; first compound 50 µM): 0.471
relative viability (CAL-12T; first compound 158.11 µM): 0.0667
relative viability (CAL-12T; first compound 500 µM): 0.0085
relative viability (NCI-H2347; first compound 5 µM): 0.645
relative viability (NCI-H2347; first compound 15.81 µM): 0.555
relative viability (NCI-H2347; first compound 50 µM): 0.695
relative viability (NCI-H2347; first compound 158.11 µM): 0.669
relative viability (NCI-H2347; first compound 500 µM): 0.55
relative viability (PC-3 [JPC-3]; first compound 5 µM): 0.977
relative viability (PC-3 [JPC-3]; first compound 15.81 µM): 0.89
relative viability (PC-3 [JPC-3]; first compound 50 µM): 0.889
relative viability (PC-3 [JPC-3]; first compound 158.11 µM): 0.648
relative viability (PC-3 [JPC-3]; first compound 500 µM): 0.324
relative viability (EKVX; first compound 5 µM): 0.885
relative viability (EKVX; first compound 15.81 µM): 0.817
relative viability (EKVX; first compound 50 µM): 0.891
relative viability (EKVX; first compound 158.11 µM): 1.02
relative viability (EKVX; first compound 500 µM): 0.952
relative viability (NCI-H1437; first compound 5 µM): 0.96
relative viability (NCI-H1437; first compound 15.81 µM): 0.794
relative viability (NCI-H1437; first compound 50 µM): 0.857
relative viability (NCI-H1437; first compound 158.11 µM): 0.229
relative viability (NCI-H1437; first compound 500 µM): 0.0274
relative viability (NCI-H1651; first compound 5 µM): 0.838
relative viability (NCI-H1651; first compound 15.81 µM): 0.769
relative viability (NCI-H1651; first compound 50 µM): 0.922
relative viability (NCI-H1651; first compound 158.11 µM): 0.818
relative viability (NCI-H1651; first compound 500 µM): 0.927
relative viability (LK-2; first compound 5 µM): 0.225
relative viability (LK-2; first compound 15.81 µM): 0.191
relative viability (LK-2; first compound 50 µM): 0.227
relative viability (LK-2; first compound 158.11 µM): 0.219
relative viability (LK-2; first compound 500 µM): 0.249
relative viability (NCI-H2228; first compound 5 µM): 0.513
relative viability (NCI-H2228; first compound 15.81 µM): 0.481
relative viability (NCI-H2228; first compound 50 µM): 0.52
relative viability (NCI-H2228; first compound 158.11 µM): 0.203
relative viability (NCI-H2228; first compound 500 µM): 0.0468
relative viability (NCI-H1944; first compound 5 µM): 1.22
relative viability (NCI-H1944; first compound 15.81 µM): 1.02
relative viability (NCI-H1944; first compound 50 µM): 1.07
relative viability (NCI-H1944; first compound 158.11 µM): 1.06
relative viability (NCI-H1944; first compound 500 µM): 0.891
relative viability (SK-LU-1; first compound 5 µM): 1.03
relative viability (SK-LU-1; first compound 15.81 µM): 0.902
relative viability (SK-LU-1; first compound 50 µM): 0.644
relative viability (SK-LU-1; first compound 158.11 µM): 0.167
relative viability (SK-LU-1; first compound 500 µM): 0.104
relative viability (NCI-H1755; first compound 5 µM): 0.795
relative viability (NCI-H1755; first compound 15.81 µM): 0.835
relative viability (NCI-H1755; first compound 50 µM): 0.822
relative viability (NCI-H1755; first compound 158.11 µM): 0.386
relative viability (NCI-H1755; first compound 500 µM): 0.142
relative viability (NCI-H1915; first compound 5 µM): 0.895
relative viability (NCI-H1915; first compound 15.81 µM): 0.93
relative viability (NCI-H1915; first compound 50 µM): 0.809
relative viability (NCI-H1915; first compound 158.11 µM): 0.678
relative viability (NCI-H1915; first compound 500 µM): 0.446
relative viability (NCI-H2087; first compound 5 µM): 0.909
relative viability (NCI-H2087; first compound 15.81 µM): 0.706
relative viability (NCI-H2087; first compound 50 µM): 0.706
relative viability (NCI-H2087; first compound 158.11 µM): 0.132
relative viability (NCI-H2087; first compound 500 µM): 0.0499
